Assay results taken from publication PMC10267570, “Characterization of the cholesterol biosynthetic pathway in Dioscorea transversa” (The Journal of Biological Chemistry, 2023).

Biological target: T1, CYP51Dt (D. transversa sterol 14α-demethylase)
T1 construct: gene CYP51; C-terminal hexa-histidine tag
Assay: UV–visible difference spectroscopy titration (type I spectrum) of purified P450; also turnover with CPRDt/NADPH by GC–MS
Format: binding, Dioscorea transversa

SMILES | Kd
C=C(CC[C@@H](C)[C@H]1CC[C@@]2(C)C3=C(CC[C@]12C)[C@@]1(C)CC[C@H](O)[C@@H](C)[C@@H]1CC3)C(C)C [compound 7, obtusifoliol] | 800 ± 250 nM
CC(C)CCC[C@@H](C)[C@H]1CC[C@@]2(C)C3=C(CC[C@]12C)[C@@]1(C)CC[C@H](O)[C@@H](C)[C@@H]1CC3 [compound 19, 4-desmethyl-24,25-dihydrolanosterol] | 2400 ± 180 nM
